The text below walks through data of EP1037627B1, “USE OF 11-(3-DIMETHYLAMINOPROPYLIDENE)-6,11-DIHYDRODIBENZ[B,E]OXEPIN-2-ACETIC ACID AND OF PHARMACEUTICALLY ACCEPTABLE SALTS THEREOF FOR THE MANUFACTURE OF A MEDICAMENT FOR THE TREATMENT OF NON-[…] OPHTHALMIC INFLAMMATORY DISORDERS AND FOR THE PREVENTION OF OCULAR NEOVASCULARIZATION” (Alcon Laboratories, Inc., priority 1998, dated 2000).

Where “and” joins values, the source holds several entries; their conditions need not be identical. Identical values can stand only once. Counter-ions that a name gives are not always drawn. Like-named read-outs stand apart in the source and are kept apart here.

The subject of experiment [1] is IL-6 Secretion in Human Conjunctival Epithelial Cells. In words: Inhibition of histamine-stimulated IL-6 secretion in cultured human conjunctival epithelial cells (ELISA). The experiment is classed as cell-based. Particulars: for IC50: Homo sapiens, read-out: IL-6 IC50. The text has this: (§1) Methods detailing the preparation of primary epithelial cell cultures and cytokine release studies using these cells have been described. See […], et al., "Secretion of proinflammatory cytokines by human conjunctival epithelial cells," Ocul Immunol Inflamm., 5:117-128 (1997). Briefly, cultures of human conjunctival epithelial cells were initiated from donor tissues obtained within eight hours post mortem by various eye banks. The tissues were enzymatically digested overnight. Epithelial cells were gently scraped from the tissue surface, dissociated into a single cell suspension, and cultured in keratinocyte growth medium (Clonetics® , San Diego, CA). Cells were used only through passage 6. Cultures were maintained in a preconfluent state to prevent differentiation. Cells were identified as epithelial by positive keratin staining. […] Cells were plated at 2x10^4 cells/well and cultured overnight at 5% CO2/37°C. The following day, fresh medium containing test compound was added directly to wells and the cells were incubated for 30 minutes prior to 24-hour stimulation with histamine (30 μM). Three separate culture wells were used for each treatment group. At harvest, supernatants were collected, centrifuged at 200 x g, and stored at -20°C. Samples were analyzed for IL-6 and IL-8 by ELISA (R&D Systems, Minneapolis, MN) as directed by the manufacturer. The sensitivities of each ELISA are as follows: […] The antagonist potency (IC50) was defined as the concentration of the drug required to produce 50% inhibition of the agonist-stimulated functional response. Data derived from the cytokine assays were calculated as mean and standard error (SEM) values which represent the variability among identically treated culture wells. The dose-dependent effect of pharmacological agents and IC50's were determined by linear regression. Data are expressed as mean ± S.E.M. from 3 - 5 independent experiments.
Background: An ELISA detects its analyte on a solid surface through an enzyme-linked reagent.

The target of experiment [2] is histamine H1-receptor. Particulars: published values (Sharif et al. 1994; Yanni et al. 1997), read-out: H1 Binding Ki, cited from earlier work.
Experiment [3] deals with IL-8 Secretion in Human Conjunctival Epithelial Cells. In words: Inhibition of histamine-stimulated IL-8 secretion in cultured human conjunctival epithelial cells (ELISA). The experiment is classed as cell-based. Conditions: for IC50: Homo sapiens, read-out: IL-8 IC50.
Description: as §1

[4] abbreviates: HCE cells, 30 minutes preincubation with test compound, then 24-hour stimulation with histamine (30 µM), ELISA.
The mark [5] stands for this setting: IL-6 and IL-8 secretion IC50 compared with H1 binding affinity.
Where [6] appears, read: HCE exposed to 30 µM of histamine.

As for `c1ccc(CN(CC2=NCCN2)c2ccccc2)cc1` [Antazoline, 4,5-Dihydro-N-phenyl-N-(phenylmethyl)-1 H-imidazole-2-methanamine], the IC50 in experiment [1] (setting [4]) came to 1010 nM; in experiment [3] (setting [4]), 652 nM. The “less potent inhibitors of IL-6 and IL-8 secretion than predicted from their histamine H1-receptor binding affinities” value in experiment [1] (setting [5]) is 20 - 140 fold. For the same compound, the values for the Ki in experiment [2] (listed as antazoline) and in experiment [2] were 32 to 39 nM and 38.4 nM, respectively.
Consider `CCOCCn1c(N2CCCN(C)CC2)nc2ccccc21` [Emedastine, 1H-Benzimidazole,1-(2-ethoxyethyl)-2-(hexahydro-4-methyl-1H-1,4-diazepin-1-yl),(E)-2-butenedioate (1:2)], for which the IC50 in experiment [1] (setting [4]) stood at 2.5 nM; in experiment [3] (setting [4]), 4 nM. For the same compound, the Ki in experiment [2] was 1.22 nM.
For the compound `C[C@@H]1CN([C@H]2CC[C@](C#N)(c3ccc(F)cc3)CC2)CC[C@]1(C(=O)O)c1ccccc1` [Levocabastine, (-)-traps-1-[cis-4-Cyano-4-(p-fluorophenyl)cyclohexyl]-3-methyl-4-phenylisonipecotic acid monohydrochloride], the figures for the IC50 in experiment [1] (setting [4]) and in experiment [3] (setting [4]) were 25.1 nM and 11.9 nM, respectively. In addition, the Ki in experiment [2] is 52.6 nM.
Turning to `CN(C)CC/C=C1/c2ccccc2COc2ccc(CC(=O)O)cc21` [Olopatadine, Z-11-(3-Dimethylaminopropylidene)-6,11-dihydrodibenz[b,e]oxepin-2-acetic acid], the IC50 was determined as 5.5 nM in experiment [1] (HCE) and 1.7 nM in experiment [3] (HCE). In addition, the “more potent as an inhibitor of cytokine secretion than predicted from binding data” value in experiment [1] (setting [5]) was “approximately 10 fold”. Moreover, the inhibition constant (Ki) in experiment [2] is 36 nM and 32 to 39 nM.
With `CN(C)CCC(c1ccccc1)c1ccccn1` (stereo not shown) [Pheniramine, N,N-Dimethyl-γ-phenyl-2-pyridine-propanamine], the IC50 in experiment [1] (setting [4]) was found to be 4830 nM; in experiment [3] (setting [4]), 1220 nM. In addition, the “less potent inhibitors of IL-6 and IL-8 secretion than predicted from their histamine H1-receptor binding affinities” value in experiment [1] (setting [5]) was 20 - 140 fold. Also, the Ki was 32 to 39 nM in experiment [2] (listed as pheniramine) and 33.9 nM in experiment [2].
`NCCc1c[nH]cn1` [histamine]: in experiment [1] (setting [6]), the “increased IL-6 secretion” value is 1.59 ± 0.19 fold above basal levels. Also, the “increased IL-8 secretion” value in experiment [3] (setting [6]) worked out at 1.80 ± 0.28 fold above basal levels.

As usually defined, the IC50 is the concentration at which inhibition is half-maximal. One may read the Ki as the equilibrium dissociation constant of an inhibitor or competing ligand from its target.
